Consider 26 compounds from patent publication US20240025883A1, “PYRIMIDIN-2-YL SULFONAMIDE DERIVATIVES” (Hoffmann-La Roche Inc., priority 2021, published 2024).

The structures appear in SMILES notation.

The target of this test is human GPR17 short isoform (Homo sapiens (Human), UniProt Q13304). As to the kind of experiment: GPR17 cAMP assay (hGPR17 cAMP, antagonist mode against EC80 of MDL29,951). The class given is cell-based. Particulars: CHO-K1 cells stably expressing human GPR17 short isoform; EC80 of agonist MDL29,951; forskolin 15 μM. As to the method: GPR17 cAMP Assay Protocol:
CHO-K1 cells stably expressing vector containing untagged human GPR17 short isoform (Roche) were cultured at 37° C./5% CO2 in DMEM (Dulbecco's Modified Eagle Medium):F-12 (1:1) supplemented with 10% foetal bovine serum and 400 μg/ml Geneticin.
Changes in intracellular cyclic adenosine monophosphate (cAMP) levels were quantified using the Nano-TRF Detection Assay kit (Roche Diagnostics, Cat. No. 05214386001). This assay allows for direct cAMP quantification in a homogeneous solution, cAMP is detected based on time-resolved fluorescence energy transfer (TR-FRET) and competitive binding of ruthenylated cAMP and endogenous cAMP to an anti-cAMP monoclonal antibody labeled with AlexaFluor-700. The Ruthenium complex serves as the FRET donor and transfers energy to AlexaFluor-700. The FRET signal is inversely proportional to the cAMP concentration.
CHO-GPR17S cells were detached with Accutase and resuspended in assay buffer consisting of Hank's Balanced Salt Solution (HBSS), 10 mM HEPES (4-(2-hydroxyethyl) piperazine-1-ethanesulfonic acid solution) and 0.1% bovine serum albumin (pH 7.4). The cells were seeded in black 384-well plates (Corning) at a density of 10,000 cells/20 μl assay buffer until the addition of compounds.
Test antagonist compounds were serially diluted in dimethyl sulfoxide (DMSO) and spotted in 384-well plates. The compounds were then diluted in HBSS buffer supplemented with an EC80 concentration of MDL29,951 (3-(2-Carboxy-4,6-dichloroindol-3-yl)propionic acid) (GPR17 agonist) plus 3-Isobutyl-1-methylxanthine (IBMX) (0.5 mM final concentration) and added to the cells at room temperature. Forskolin (15 μM final concentration) was added 5 minutes after the test compounds and the cells were incubated at room temperature for 30 minutes. The assay was stopped by adding cAMP detection mix (containing detergents for cell lysis) for 90 minutes at room temperature.
Cellular cAMP was measured using a Paradigm reader (Molecular Devices). The raw data was used to calculate the FRET signal based on the assay's P-factor as per cAMP kit instructions. The data was normalized to the maximal activity of a reference antagonist and dose response curves were fitted to the percent activity of the test compounds using a sigmoidal dose response model (Genedata Screener).

Chain of human GPR17 short isoform (Q13304 29-367): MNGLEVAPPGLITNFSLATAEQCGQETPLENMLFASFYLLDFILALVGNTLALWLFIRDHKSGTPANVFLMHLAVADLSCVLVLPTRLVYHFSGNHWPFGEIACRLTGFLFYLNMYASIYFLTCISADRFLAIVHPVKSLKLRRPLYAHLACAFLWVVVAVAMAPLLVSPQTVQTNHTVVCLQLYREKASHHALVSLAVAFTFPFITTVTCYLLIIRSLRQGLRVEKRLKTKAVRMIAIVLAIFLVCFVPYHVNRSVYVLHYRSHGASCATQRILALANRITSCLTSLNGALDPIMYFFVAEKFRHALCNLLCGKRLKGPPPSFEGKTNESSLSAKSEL

Take `COc1nc(NS(=O)(=O)c2c[nH]c3cc(Cl)ccc23)nc(F)c1Br` [Example 73, N-(5-bromo-4-fluoro-6-methoxy-pyrimidin-2-yl)-6-chloro-1H-indole-3-sulfonamide]: the IC50 was determined as 124 nM.

As to `COc1nc(NS(=O)(=O)c2c[nH]c3cc(Cl)ccc23)nc(Cl)c1OC` [Example 75, 6-chloro-N-(4-chloro-5,6-dimethoxy-pyrimidin-2-yl)-1H-indole-3-sulfonamide], the IC50 amounted to 946 nM.

For the compound `O=S(=O)(Nc1ncc(OCC(F)F)c(Cl)n1)c1c[nH]c2cc(Cl)ccc12` [Example 76, 6-chloro-N-[4-chloro-5-(2,2-difluoroethoxy)pyrimidin-2-yl]-1H-indole-3-sulfonamide], the IC50 amounted to 916 nM.

Regarding `CCc1nc(NS(=O)(=O)c2c[nH]c3cc(Cl)ccc23)nc(OC)c1OCC(F)F` [Example 77, 6-chloro-N-[5-(2,2-difluoroethoxy)-4-ethyl-6-methoxy-pyrimidin-2-yl]-1H-indole-3-sulfonamide], the IC50 was determined as 148 nM.

With `COc1nc(NS(=O)(=O)c2c[nH]c3cc(Cl)ccc23)nc(C)c1CC(F)F` [Example 78, 6-chloro-N-[5-(2,2-difluoroethyl)-4-methoxy-6-methyl-pyrimidin-2-yl]-1H-indole-3-sulfonamide], the IC50 was 244 nM.

The compound `COc1nc(NS(=O)(=O)c2c[nH]c3cc(Cl)ccc23)nc(C2CC2)c1CC(F)F` [Example 79, 6-chloro-N-[4-cyclopropyl-5-(2,2-difluoroethyl)-6-methoxy-pyrimidin-2-yl]-1H-indole-3-sulfonamide] showed an IC50 of 128 nM.

In turn, `COc1nc(NS(=O)(=O)c2c[nH]c3cc(Cl)ccc23)nc(CC2CC2)c1Br` [Example 80, N-[5-bromo-4-(cyclopropylmethyl)-6-methoxy-pyrimidin-2-yl]-6-chloro-1H-indole-3-sulfonamide] yielded an IC50 of 20800 nM.

`COCc1nc(NS(=O)(=O)c2c[nH]c3cc(Cl)ccc23)nc(OC)c1Br` [Example 81, N-[5-bromo-4-methoxy-6-(methoxymethyl)pyrimidin-2-yl]-6-chloro-1H-indole-3-sulfonamide] came in with an IC50 of 5700 nM.

Take `COc1nc(NS(=O)(=O)c2c[nH]c3cc(Cl)ccc23)nc(C(C)(F)F)c1Br` [Example 82, N-[5-bromo-4-(1,1-difluoroethyl)-6-methoxy-pyrimidin-2-yl]-6-chloro-1H-indole-3-sulfonamide]: the IC50 was 752 nM.

Turning to `COc1nc(NS(=O)(=O)c2c[nH]c3cc(Cl)ccc23)nc(OCF)c1Br` [Example 83, N-[5-bromo-4-(fluoromethoxy)-6-methoxy-pyrimidin-2-yl]-6-chloro-1H-indole-3-sulfonamide], the IC50 turned out to be 78 nM.

Turning to `COc1nc(NS(=O)(=O)c2c[nH]c3cc(Cl)ccc23)nc(C(F)F)c1Br` [Example 84, N-[5-bromo-4-(difluoromethyl)-6-methoxy-pyrimidin-2-yl]-6-chloro-1H-indole-3-sulfonamide], the IC50 came to 521 nM.

`COc1nc(NS(=O)(=O)c2c[nH]c3cc(Cl)ccc23)nc(CC#N)c1Br` [Example 85, N-[5-bromo-4-(cyanomethyl)-6-methoxy-pyrimidin-2-yl]-6-chloro-1H-indole-3-sulfonamide] yielded an IC50 of 623 nM.

Take `COc1nc(NS(=O)(=O)c2c[nH]c3cc(Cl)ccc23)nc(SC)c1OC(F)F` [Example 86, 6-chloro-N-[5-(difluoromethoxy)-4-methoxy-6-methylsulfanyl-pyrimidin-2-yl]-1H-indole-3-sulfonamide]: the IC50 was found to be 117 nM.

Compound `COc1nc(NS(=O)(=O)c2c[nH]c3cc(Br)ccc23)ncc1CC(F)F` [Example 88, 6-bromo-N-[5-(2,2-difluoroethyl)-4-methoxy-pyrimidin-2-yl]-1H-indole-3-sulfonamide] gave an IC50 of 33 nM.

In turn, `COc1nc(NS(=O)(=O)c2c[nH]c3cc(Br)ccc23)ncc1CCC#N` [Example 89, 6-bromo-N-[5-(2-cyanoethyl)-4-methoxy-pyrimidin-2-yl]-1H-indole-3-sulfonamide] yielded an IC50 of 212 nM.

The compound `COc1nc(NS(=O)(=O)c2c[nH]c3cc(Br)ccc23)nc(OC)c1OC(F)F` [Example 90, 6-bromo-N-[5-(difluoromethoxy)-4,6-dimethoxy-pyrimidin-2-yl]-1H-indole-3-sulfonamide] returned a half-maximal inhibitory concentration (IC50) of 29 nM.

As for `COc1nc(NS(=O)(=O)c2c[nH]c3cc(Br)ccc23)nc(OC)c1OCCF` [Example 91, 6-bromo-N-[5-(2-fluoroethoxy)-4,6-dimethoxy-pyrimidin-2-yl]-1H-indole-3-sulfonamide], the IC50 came to 30 nM.

The compound `COc1nc(NS(=O)(=O)c2c[nH]c3cc(Br)ccc23)nc(OC)c1OCC(F)F` [Example 92, 6-bromo-N-[5-(2,2-difluoroethoxy)-4,6-dimethoxy-pyrimidin-2-yl]-1H-indole-3-sulfonamide] registered an IC50 of 18 nM.

In turn, `COc1nc(NS(=O)(=O)c2c[nH]c3cc(Br)ccc23)nc(OC)c1CCC#N` [Example 93, 6-bromo-N-[5-(2-cyanoethyl)-4,6-dimethoxy-pyrimidin-2-yl]-1H-indole-3-sulfonamide] yielded an IC50 of 10 nM.

Turning to `COc1nc(NS(=O)(=O)c2c[nH]c3nc(C(F)F)ccc23)nc(OC)c1OC(F)F` [Example 94, N-[5-(difluoromethoxy)-4,6-dimethoxy-pyrimidin-2-yl]-6-(difluoromethyl)-1H-pyrrolo[2,3-b]pyridine-3-sulfonamide], the IC50 is 76 nM.

In turn, `COc1nc(NS(=O)(=O)c2c[nH]c3nc(C(F)F)ccc23)nc(OC)c1CCC(F)F` [Example 98, 6-(difluoromethyl)-N-[5-(3,3-difluoropropyl)-4,6-dimethoxy-pyrimidin-2-yl]-1H-pyrrolo[2,3-b]pyridine-3-sulfonamide] gave an IC50 of 25 nM.

In turn, `COc1nc(NS(=O)(=O)c2c[nH]c3nc(C(F)F)ccc23)nc(OC)c1OCC#N` [Example 99, N-[5-(cyanomethoxy)-4,6-dimethoxy-pyrimidin-2-yl]-6-(difluoromethyl)-1H-pyrrolo[2,3-b]pyridine-3-sulfonamide] came in with an IC50 of 102 nM.

Consider `COc1nc(NS(=O)(=O)c2c[nH]c3cc(C(F)F)ccc23)ncc1OC(F)(F)CF` [Example 100, 6-(difluoromethyl)-N-[4-methoxy-5-(1,1,2-trifluoroethoxy)pyrimidin-2-yl]-1H-indole-3-sulfonamide], for which the IC50 is 160 nM.

`COc1nc(NS(=O)(=O)c2c[nH]c3cc(C(F)F)ccc23)nc(OC)c1CCC#N` [Example 103, N-[5-(2-cyanoethyl)-4,6-dimethoxy-pyrimidin-2-yl]-6-(difluoromethyl)-1H-indole-3-sulfonamide] displayed an IC50 of 11 nM.

For the compound `COc1nc(NS(=O)(=O)c2c[nH]c3cc(OC(F)F)ccc23)ncc1CC(F)F` [Example 104, N-[5-(2,2-difluoroethyl)-4-methoxy-pyrimidin-2-yl]-6-(difluoromethoxy)-1H-indole-3-sulfonamide], the concentration for half-maximal inhibition (IC50) stood at 209 nM.

In the case of `COc1nc(NS(=O)(=O)c2c[nH]c3c(SC(F)F)c(Cl)ccc23)ncc1CCC#N` [Example 105, 6-chloro-N-[5-(2-cyanoethyl)-4-methoxy-pyrimidin-2-yl]-7-(difluoromethylthio)-1H-indole-3-sulfonamide], the IC50 was 14 nM.
